We go through one molecule from patent US11730746B2, “17beta-heterocyclyl-digitalis like compounds for the treatment of heart failure” (priority 2018, dated 2023).

One data set deals with STZ diabetic rats. The data set can be described thus: Haemodynamics in streptozotocin diabetic rats (echocardiography). In kind it is in vivo, rat. The following applies: 20 mg/kg os, after treatment, mean ± SD, n = 12. The method, then: Sprague Dawley male rats (150-175 g) were made diabetic by a single injection into the tail vein of a solution of streptozotocin (STZ, 50 mg/kg, Sigma-Aldrich), freshly prepared in 0.1 M sodium citrate buffer, pH 4.5. Control rats received citrate buffer. Fasting glycaemia was measured after 1 week and rats with values >400 mg/dl were considered diabetic.
Eight-nine weeks after STZ injection, rats were submitted to transthoracic echocardiographic and Doppler evaluation performed under pentobarbital anesthesia. Two-dimensionally guided M-mode recordings were used to obtain short-axis measurements of left ventricular end-diastolic diameter (LVEDD), left ventricular end-systolic diameter (LVESD), posterior (PW) and septal (SW) diastolic wall thickness according to the American Society of Echocardiography guidelines (Lang R M et al. Eur J Echocardiography 2006; 7:79-108). Fractional shortening was calculated as FS=(LVEDD-LVESD)/LVEDD. Relative wall thickness was calculated as PWTd+IVSTd/LVEDD.
Mitral inflow was measured by pulsed Doppler at the tips of mitral leaflets from an apical 4-chamber view to obtain early and late filling velocities (E, A) and deceleration time of early filling velocity (DT). The deceleration slope was calculated as E/DT ratio. The mitral deceleration index was calculated as DT/E ratio.
Tissue Doppler Imaging (TDI) was evaluated from the apical 4-chamber view to record septal mitral annular movements, i.e., peak myocardial systolic (s′) and early and late diastolic velocity (e′ and a′).
Compound CVie 101 was orally administered to STZ injected rats at the dose of 20 mg/kg and echocardiographic parameters were measured after 1 h.

The conditions of data set [1]: literature (Packer 2016, 2018); cited from earlier work.
The target of the next data set is T1, SERCA2a (Canis lupus familiaris, UniProt O46674).
T1 construct: pre-incubated with 2 μg of microsomes; from tissue; host or cells: dog heart left ventricle, SR microsomes
The note with it: literature (Rocchetti 2005; Ferrandi 2013); cited from earlier work.

The test system of data set [2] is mouse (Albino Swiss CD-1). The note with it: i.v., data from literature; cited from earlier work.
The subject of a further data set is guinea pig. As to the kind of experiment: Haemodynamics: inotropic and lethal dose in guinea pig. It is filed as in vivo. The protocol:
Guinea-pigs (400-450 g) were anaesthetized with urethane (1.5 g/kg ip). A microtip pressure transducer was introduced into the left ventricle through the right carotid artery to measure ventricular pressure (LVP); the transducer was coupled with a transducer amplifier. Recordings were fed to a polygraph and analyzed. A polythene cannula was inserted into a jugular vein for drug infusion. After a stabilization period, the test substance was injected at the rate of 0.16 ml/min for 90 min (Micheletti R et al. J Pharmacol Exp Ther 2002; 303:592-600).
The following parameters were obtained: heart rate (HR), left ventricular pressure (LVP), maximal velocity of pressure rise (+dP/dtmax) and decay (−dP/dtmax), ECG. For inotropy, the time elapsed until +dP/dtmax increased by 80% was identified in order to determine the ED80 (dose increasing basal +dP/dtmax by 80%). The time to the maximum increase in +dP/dtmax was also identified to determine the maximum effective dose, EDmax. Lusitropy was characterized by the dose inducing the maximum decrease in −dP/dtmax, (EDmax). As indexes of toxicity, the dose administered until the onset of arrhythmias and the dose inducing death (LD) were calculated. The safety ratio for the tested compound was also calculated as the ratio between LD and ED80.

For a further data set, the target named is T2, dog renal Na,K-ATPase (Canis lupus familiaris, UniProt P50997).
T2 construct: incubated with 0.3 μg of purified dog kidney enzyme; from tissue; host or cells: dog kidney outer medulla
The data set can be described thus: Inhibition of dog renal Na,K-ATPase activity (32P-ATP release). In kind it is biochemical. The method, then: Kidneys were sliced and the outer medulla was dissected, pooled and suspended (1 g/10 ml) in a sucrose-histidine solution, containing 250 mM sucrose, 30 mM histidine and 5 mM EDTA, pH 7.2 and homogenized. […] The pellet was suspended in the sucrose-histidine buffer and incubated for 20 min with a sodium-dodecyl-sulphate (SDS) solution dissolved in a gradient buffer, containing 25 mM imidazole and 1 mM EDTA, pH 7.5. […] The pellet was suspended in the gradient buffer.
Increasing concentrations of the standard ouabain, or tested compound, were incubated with 0.3 μg of purified dog kidney enzyme for 10 min at 37° C. in 120 μl final volume of a medium, containing 140 mM NaCl, 3 mM MgCl2, 50 mM Hepes-Tris, 3 mM ATP, pH 7.5. […] The inhibitory activity was expressed as percent of the control samples carried out in the absence of ouabain or tested compound.

The structures appear in SMILES notation.

T1 sequence (O46674 whole entry): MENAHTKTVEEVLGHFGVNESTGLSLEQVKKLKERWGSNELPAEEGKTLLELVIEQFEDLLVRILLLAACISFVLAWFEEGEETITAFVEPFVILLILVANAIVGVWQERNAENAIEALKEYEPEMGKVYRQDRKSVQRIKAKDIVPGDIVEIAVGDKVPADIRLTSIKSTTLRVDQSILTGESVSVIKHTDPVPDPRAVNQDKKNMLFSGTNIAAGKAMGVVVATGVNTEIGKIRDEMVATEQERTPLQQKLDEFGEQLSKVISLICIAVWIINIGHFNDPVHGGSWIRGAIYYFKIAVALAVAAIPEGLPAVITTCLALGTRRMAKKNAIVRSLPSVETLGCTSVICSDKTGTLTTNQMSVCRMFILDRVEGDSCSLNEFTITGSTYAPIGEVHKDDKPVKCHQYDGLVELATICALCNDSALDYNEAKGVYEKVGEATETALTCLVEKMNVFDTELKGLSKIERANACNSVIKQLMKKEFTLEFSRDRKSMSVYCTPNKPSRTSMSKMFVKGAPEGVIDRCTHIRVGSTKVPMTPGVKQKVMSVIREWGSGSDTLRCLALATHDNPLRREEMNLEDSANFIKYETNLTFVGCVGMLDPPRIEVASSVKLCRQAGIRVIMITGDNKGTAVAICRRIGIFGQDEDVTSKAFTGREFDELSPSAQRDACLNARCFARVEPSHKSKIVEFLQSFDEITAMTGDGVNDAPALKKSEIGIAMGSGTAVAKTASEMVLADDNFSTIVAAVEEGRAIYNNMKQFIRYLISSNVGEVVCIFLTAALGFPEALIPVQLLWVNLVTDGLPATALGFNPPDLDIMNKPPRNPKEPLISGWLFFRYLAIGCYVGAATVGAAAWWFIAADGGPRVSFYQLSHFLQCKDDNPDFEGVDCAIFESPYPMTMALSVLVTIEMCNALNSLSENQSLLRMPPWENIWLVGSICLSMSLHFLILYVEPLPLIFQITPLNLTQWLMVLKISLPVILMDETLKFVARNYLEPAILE

The term LD50 denotes the dose at which mortality reaches 50%. As usually defined, the IC50 is the midpoint of a concentration-inhibition curve. Take `C[C@H]1O[C@@H](O[C@H]2[C@@H](O)C[C@H](O[C@H]3[C@@H](O)C[C@H](O[C@H]4CC[C@@]5(C)[C@H](CC[C@@H]6[C@@H]5C[C@@H](O)[C@]5(C)[C@@H](C7=CC(=O)OC7)CC[C@]65O)C4)O[C@@H]3C)O[C@@H]2C)C[C@H](O)[C@@H]1O` [Digoxin, reference compound]: in the data set on STZ diabetic rats, the “A (late filling velocity of mitral inflow)” value is 0.92 ± 0.1 m/s, the “A′ (TDI late relaxation velocity)” value was determined as 35.8 ± 5 cm/s, the “CO (cardiac output)” value turned out to be 246.8 ± 72 mL/min and the “DT (deceleration time of E wave)” value came to 39.2 ± 9.34 ms. Besides, in the data set on STZ diabetic rats, the “E (early filling velocity of mitral inflow)” value is 1.02 ± 0.13 m/s, the “E/DT (deceleration slope)” value was found to be 27.9 ± 9.8 m/s2, the “E′ (TDI early relaxation velocity)” value is 23.7 ± 1.35 cm/s and the “FS (fractional shortening)” value was found to be 47.2 ± 3.24 %. Further, in the data set on STZ diabetic rats, the “HR (heart rate)” value turned out to be 308 ± 39 beat/min, the “SV (stroke volume)” value worked out at 0.80 ± 0.19 ml/beat and the “S′ (TDI contraction velocity)” value amounted to 26.7 ± 2.77 cm/s. Besides, in data set [1], the “serum concentration ranges at which digoxin displays its beneficial effects” value was 0.5 to 0.7 ng/mL and the “serum threshold level above which increased risk of death, mainly due to arrhythmias, has been observed” value is 0.9 ng/mL. Also, the SERCA2a activity entry at SERCA2a is given as “failed to stimulate”. Further, the LD50 in data set [2] is given as 7.7 mg/kg. Besides, the ED80 with guinea pig (guinea pig, in vivo) is 0.69 mg/kg. This molecule gave a Lethal dose with guinea pig (i.v. infusion […]) of 1.20 mg/kg. This molecule also gave an IC50 against dog renal Na,K-ATPase of 300 nM.
